From patent US20260123631A1, “NATURAL PORPHIN SALT AND USE THEREOF AS PLANT GROWTH REGULATOR AND PLANT IMMUNITY INDUCER” (NANJING BOSTEC BIOLOGICAL ENGINEERING CO., LTD, priority 2022, published 2026)

How the values were obtained:
[1] = Stability of sample solutions in the dark/under light; assay type: physicochemical; details: under light 30,000 lux, salts in water, acidic reference in 30% to 50% ethanol
Description: Determination: An appropriate amount of a salt sample was taken, dissolved with water, and diluted to prepare a test solution with a concentration of about 10 ppm. An acidic reference substance (extremely-insoluble in water) was prepared with a 30% to 50% ethanol aqueous solution into a test solution with a concentration of about 10 ppm.
Each test solution was scanned by an ultraviolet spectrophotometer (at 0 h) for absorbance in a range of 200 nm to 800 nm immediately after being prepared. Then a test solution of each sample was divided into two parts. One part was placed at room temperature of 25° C. in the dark, and the other part was placed under light with a light intensity of 30,000 lux. At 1 h, 2 h, and 3 h, a solution sample was collected and scanned for absorbance respectively.
An absorbance value of a maximum absorption peak at 0 h (starting) of each test solution was set as a relative content of 100%, and a ratio of an absorbance value at each time point to the absorbance value at 0 h was calculated to determine a relative content, %.

[2] = Water solubility of the prepared salts; assay type: physicochemical

| Molecule | Relative content ([1]; 1 h) [%] | Relative content ([1]; 2 h) [%] | Relative content ([1]; 3 h) [%] | solubility in water [2] |
| --- | --- | --- | --- | --- |
| C=CC1=C(C)c2cc3[nH]c(cc4nc(cc5[nH]c(cc1n2)c(C)c5C=C)C(C)=C4CCC(=O)O)c(CCC(=O)O)c3C.N.N [Example 2, ammonium protoporphyrin] | 60.29 | 48.76 | 45.99 | easily soluble |
| C=CC1=C(C)c2cc3[n-]c(cc4nc(cc5[n-]c(cc1n2)c(C)c5C=C)C(C)=C4CCC(=O)[O-])c(CCC(=O)[O-])c3C.[Cl-].[Fe+3].[NH4+].[NH4+] [Example 12, ammonium chlorhematin] | 73.07 | 67.80 | 66.25 | easily soluble |
| magnesium protoporphyrin [Example 3] | 93.32 | 90.98 | 89.65 | soluble |
| ferrous copper chlorophyllin [Example 48] |  |  |  | slightly soluble |
| ferric iron chlorin [Example 26] |  |  |  | slightly soluble |
| C=CC1=C(C)c2cc3[n-]c(cc4nc(cc5[n-]c(cc1n2)c(C)c5C=C)C(C)=C4CCC(=O)[O-])c(CCC(=O)[O-])c3C.[Fe+3].[Na+].[Na+].[OH-] [Sodium hydroxyhematin, sodium hydroxyhematin, reference compound] | 70.21 | 62.33 | 57.03 | easily soluble |
| C=CC1=C(C)c2cc3[n-]c(cc4nc(cc5[n-]c(cc1n2)c(C)c5C=C)C(C)=C4CCC(=O)[O-])c(CCC(=O)[O-])c3C.[Ca+2].[Cl-].[Fe+3] [Example 14, calcium chlorhematin] | 82.53 | 81.78 | 81.97 | soluble |
| ferric copper chlorophyllin [Example 49] |  |  |  | slightly soluble |
| C=CC1=C(C)c2cc3[n-]c(cc4[n-]c(cc5nc(cc1n2)C(C)=C5C=C)c(C)c4CCC(=O)O)c(CCC(=O)O)c3C.[Fe+2] [Example 6, ferrous protoporphyrin] |  |  |  | soluble |
| ferrous iron hydroxychlorophyllin [Example 76] |  |  |  | slightly soluble |
| C=CC1=C(C)c2cc3[nH]c(cc4nc(cc5[nH]c(cc1n2)c(C)c5C=C)C(C)=C4CCC(=O)[O-])c(CCC(=O)[O-])c3C.[Ca+2] [Example 4, calcium protoporphyrin] | 90.07 | 87.11 | 85.89 | soluble |
| ferric zinc chlorophyllin [Example 39] |  |  |  | slightly soluble |
| C=CC1=C(C)c2cc3[n-]c(cc4nc(cc5[n-]c(cc1n2)c(C)c5CCC(=O)[O-])C(CCC(=O)[O-])=C4C)c(C)c3C=C.[Cl-].[Cu+2].[Fe+3] [Example 19, copper chlorhematin] | 95.23 | 95.03 | 93.04 | slightly soluble |
| ferrous iron chlorin [Example 25] |  |  |  | slightly soluble |
| C=CC1=C(C)c2cc3[n-]c(cc4nc(cc5[n-]c(cc1n2)c(C)c5C=C)C(C)=C4CCC(=O)[O-])c(CCC(=O)[O-])c3C.[Cl-].[Fe+3].[Mn+2] [Example 15, manganese chlorhematin] |  | 82.32 | 81.07 | slightly soluble |
| C=CC1=C(C)c2cc3[nH]c(cc4nc(cc5[nH]c(cc1n2)c(C)c5C=C)C(C)=C4CCC(=O)[O-])c(CCC(=O)[O-])c3C.[Mn+2] [Example 5, manganese protoporphyrin] | 92.57 | 90.09 | 88.85 | soluble |
| C=CC1=C(C)c2cc3[n-]c(cc4nc(cc5[n-]c(cc1n2)c(C)c5CCC(=O)[O-])C(CCC(=O)[O-])=C4C)c(C)c3C=C.[Cl-].[Fe+2].[Fe+3] [Example 16, ferrous chlorhematin] |  |  |  | slightly soluble |
| copper iron hydroxychlorophyllin [Example 80] | 79.89 | 76.11 | 73.21 | slightly soluble |
| C=CC1=C(C)c2cc3[n-]c(cc4nc(cc5[n-]c(cc1n2)c(C)c5C=C)C(C)=C4CCC(=O)O)c(CCC(=O)O)c3C.[Zn+2] [Example 8, zinc protoporphyrin] | 90.95 | 89.52 | 86.51 | slightly soluble |
| C=CC1=C(C)c2cc3[nH]c(cc4nc(cc5[nH]c(cc1n2)c(C)c5C=C)C(C)=C4CCC(=O)[O-])c(CCC(=O)[O-])c3C.[Cu+2] [Example 9, copper protoporphyrin] | 96.42 | 95.56 | 94.88 | slightly soluble |
| ferric hydroxyhematin [Example 68] |  |  |  | slightly soluble |
| magnesium iron hydroxychlorophyllin [Example 74] | 80.48 | 67.53 | 67.13 |  |
| zinc iron hydroxychlorophyllin [Example 79] | 73.29 | 69.57 | 65.55 | slightly soluble |

Continued, values first:

| Relative content ([1]; 1 h) [%] | Relative content ([1]; 2 h) [%] | Relative content ([1]; 3 h) [%] | solubility in water [2] | Molecule |
| --- | --- | --- | --- | --- |
| 96.20 | 95.71 | 92.81 | slightly soluble | copper hydroxyhematin [Example 70] |
|  |  |  | slightly soluble | ferric chlorin [Example 58] |
| 93.45 | 93.10 | 92.74 | slightly soluble | C=CC1=C(C)c2cc3[n-]c(cc4nc(cc5[n-]c(cc1n2)c(C)c5CCC(=O)[O-])C(CCC(=O)[O-])=C4C)c(C)c3C=C.[Cl-].[Fe+3].[Zn+2] [Example 18, zinc chlorhematin] |
|  |  |  | slightly soluble | ferrous hydroxyhematin [Example 67] |
|  |  |  | slightly soluble | ferrous zinc chlorophyllin [Example 38] |
|  |  |  | slightly soluble | ferrous iron chlorophyllin [Example 32] |
| 75.51 | 70.44 | 68.12 | slightly soluble | manganese iron hydroxychlorophyllin [Example 78] |
| 62.96 | 54.32 | 49.38 | easily soluble | potassium iron hydroxychlorophyllin [Example 71] |
| 60.39 | 52.14 | 47.32 | easily soluble | sodium iron hydroxychlorophyllin [Example 72] |
|  |  |  | slightly soluble | ferric protoporphyrin [Example 7] |
| 96.74 | 93.78 | 93.33 |  | magnesium hydroxyhematin [Example 64] |
|  |  |  | slightly soluble | ferric iron chlorophyllin [Example 33] |
|  |  |  | slightly soluble | ferric chlorhematin [Example 17] |
|  |  |  | slightly soluble | ferric iron hydroxychlorophyllin [Example 77] |
| 77.06 | 75.72 | 73.04 | easily soluble | potassium hydroxyhematin [Example 62] |
| 87.45 | 83.77 | 80.00 | slightly soluble | manganese hydroxyhematin [Example 66] |
| 94.32 | 93.24 | 90.85 | slightly soluble | zinc hydroxyhematin [Example 69] |
|  |  |  | slightly soluble | ferrous chlorin [Example 57] |
